In US11866430B2, “Naphthyridinone compounds useful as T cell activators” (priority 2018, dated 2024):
Where two headings read alike, the source gives them in different places.

What was measured:
[1] = target: human DGKζ (Homo sapiens (Human), UniProt Q13574); assay: DGKζ assay (detergent/lipid micelle substrate); format: biochemical; settings: detergent/lipid micelle substrate; read-out: DGKζ IC50
Protocol: (§1) The DGKα and DGKζ reactions were performed using either extruded liposome (DGKα and DGKζ LIPGLO assays) or detergent/lipid micelle substrate (DGKα and DGKζ assays). The reactions were carried out in 50 mM MOPS pH 7.5, 100 mM NaCl, 10 mM MgCl2, 1 μM CaCl2, and 1 mM DTT (assay buffer). The reactions using a detergent/lipid micelle substrate also contained 50 mM octyl B-D-glucopyranoside. […] The lipid substrate concentrations were […], 0.25 mM DAG, and 2.75 mM PC for the extruded liposome reactions.
(§2) The compound inhibition studies were carried out as follows: 50 nL droplets of each test compound (top concentration 10 mM with 11 point, 3-fold dilution series for each compound) solubilized in DMSO were transferred to wells of a white 1536 well plate (Corning 3725). A 5 mL enzyme/substrate solution at 2× final reaction concentration was prepared by combining 2.5 mL 4× enzyme solution (20 nM DGKα or DGKζ (prepared as described below) in assay buffer) and 2.5 mL of either 4× liposome or 4× detergent/lipid micelle solution (compositions described below) and incubated at room temperature for 10 minutes. Next, 1 μL 2× enzyme/substrate solution was added to wells containing the test compound and reactions were initiated with the addition of 1 μL 300 uM ATP. The reactions were allowed to proceed for 1 hr, after which 2 μL Glo Reagent (Promega V9101) was added and incubated for 40 minutes. Next, 4 μL Kinase Detection Reagent was added and incubated for 30 minutes. Luminescence was recorded using an EnVision microplate reader. […] The compounds were evaluated at 11 concentrations to determine IC50.
(§3) The detergent/lipid micelle was prepared by combining 15 g phosphatidylserine (Avanti 840035P) and 1 g diacylglycerol (800811O) and dissolving into 150 mL chloroform in a 2 L round bottom flask. Chloroform was removed under high vacuum by rotary evaporation. The resulting colorless, tacky oil was resuspended in 400 mL 50 mM MOPS pH 7.5, 100 mM NaCl, 20 mM NaF, 10 mM MgCl2, 1 μM CaCl2), 1 mM DTT, and 200 mM octyl glucoside by vigorous mixing. The lipid/detergent solution was split into 5 mL aliquots and stored at −80° C.
(§4) Human DGK-alpha-TVMV-His-pFBgate and human DCK-zeta-transcript variant-2-TVMV-His-pFBgate baculovirus samples were generated using the Bac-to-Bac baculovirus expression system (Invitrogen) according to the manufacturer's protocol. The DNA used for expression of DGK-alpha and DGK-zeta have SEQ ID NOs: 1 and 3, respectively. Baculovirus amplification was achieved using infected Sf9 cells at 1:1500 virus/cell ratios, and grown for 65 hours at 27° C. post-transfection.
(§5) The expression scale up for each protein was carried out in the Cellbag 50 L WAVE-Bioreactor System 20/50 from GE Healthcare Bioscience. 12 L of 2×10^6 cells/mL Sf9 cells (Expression System, Davis, Calif.) grown in ESF921 insect medium (Expression System) were infected with virus stock at 1:200 virus/cell ratios, and grown for 66-68 hours at 27° C. post-infection. The infected cell culture was harvested by centrifugation at 2000 rpm for 20 min 4° C. in a SORVALL® RC12BP centrifuge. The cell pellets were stored at −70° C. until purification.
(§6) Full length human DGKα and DGKζ, each expressed containing a TVMV-cleavable C-terminal Hexa-His tag sequence (SEQ ID NOs: 2 and 4, respectively) and produced as described above, were purified from Sf) baculovirus-infected insect cell paste. The cells were lysed using nitrogen cavitation method with a nitrogen bomb (Parr Instruments), and the lysates were clarified by centrifugation. […] The three steps column chromatography included nickel affinity resin capture (i.e. HisTrap FF crude, GE Healthcare), followed by size exclusion chromatography (i.e. HiLoad 26/600 Superdex 200 prep grade, GE Healthcare for DGK-alpha, and HiPrep 26/600 Sephacryl S 300_HR, GE Healthcare for DGK-zeta).

[2] = target: human DGKα (Homo sapiens (Human), UniProt P23743); assay: biochemical; settings: detergent/lipid micelle substrate; read-out: DGKα IC50
Protocol: as §1, §2, §3, §4, §5, §6

[3] = system: pre-activated CD4 T cells and Raji cells; assay: Raji CD4 T Cell IL2 Assay; format: cell-based

Sequence of human DGKζ (Q13574 other isoform, or with tags, fused parts or gaps): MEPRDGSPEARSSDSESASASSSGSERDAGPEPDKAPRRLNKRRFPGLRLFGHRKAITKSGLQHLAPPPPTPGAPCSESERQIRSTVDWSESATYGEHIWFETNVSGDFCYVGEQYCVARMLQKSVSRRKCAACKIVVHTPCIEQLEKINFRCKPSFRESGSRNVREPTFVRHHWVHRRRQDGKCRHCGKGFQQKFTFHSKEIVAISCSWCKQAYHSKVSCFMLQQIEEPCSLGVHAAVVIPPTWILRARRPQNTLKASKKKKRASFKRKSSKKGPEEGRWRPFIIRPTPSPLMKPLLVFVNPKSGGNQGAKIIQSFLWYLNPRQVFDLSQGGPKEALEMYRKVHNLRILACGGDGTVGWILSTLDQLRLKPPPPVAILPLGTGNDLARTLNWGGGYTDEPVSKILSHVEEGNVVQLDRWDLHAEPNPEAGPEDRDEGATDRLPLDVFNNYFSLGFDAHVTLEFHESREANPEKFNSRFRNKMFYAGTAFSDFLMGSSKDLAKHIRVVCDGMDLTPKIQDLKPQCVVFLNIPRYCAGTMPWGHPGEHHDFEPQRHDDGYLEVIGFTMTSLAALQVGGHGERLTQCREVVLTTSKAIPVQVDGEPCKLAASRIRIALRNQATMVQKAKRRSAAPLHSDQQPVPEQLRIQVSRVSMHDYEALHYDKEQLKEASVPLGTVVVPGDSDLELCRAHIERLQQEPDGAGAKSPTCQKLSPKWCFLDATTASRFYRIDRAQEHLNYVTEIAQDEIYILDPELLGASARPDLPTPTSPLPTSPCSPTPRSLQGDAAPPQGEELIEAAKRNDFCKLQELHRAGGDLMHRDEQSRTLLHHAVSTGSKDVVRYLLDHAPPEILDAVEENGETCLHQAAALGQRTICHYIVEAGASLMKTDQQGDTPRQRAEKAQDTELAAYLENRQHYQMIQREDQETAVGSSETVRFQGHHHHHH
Sequence of human DGKα (P23743 other isoform, or with tags, fused parts or gaps): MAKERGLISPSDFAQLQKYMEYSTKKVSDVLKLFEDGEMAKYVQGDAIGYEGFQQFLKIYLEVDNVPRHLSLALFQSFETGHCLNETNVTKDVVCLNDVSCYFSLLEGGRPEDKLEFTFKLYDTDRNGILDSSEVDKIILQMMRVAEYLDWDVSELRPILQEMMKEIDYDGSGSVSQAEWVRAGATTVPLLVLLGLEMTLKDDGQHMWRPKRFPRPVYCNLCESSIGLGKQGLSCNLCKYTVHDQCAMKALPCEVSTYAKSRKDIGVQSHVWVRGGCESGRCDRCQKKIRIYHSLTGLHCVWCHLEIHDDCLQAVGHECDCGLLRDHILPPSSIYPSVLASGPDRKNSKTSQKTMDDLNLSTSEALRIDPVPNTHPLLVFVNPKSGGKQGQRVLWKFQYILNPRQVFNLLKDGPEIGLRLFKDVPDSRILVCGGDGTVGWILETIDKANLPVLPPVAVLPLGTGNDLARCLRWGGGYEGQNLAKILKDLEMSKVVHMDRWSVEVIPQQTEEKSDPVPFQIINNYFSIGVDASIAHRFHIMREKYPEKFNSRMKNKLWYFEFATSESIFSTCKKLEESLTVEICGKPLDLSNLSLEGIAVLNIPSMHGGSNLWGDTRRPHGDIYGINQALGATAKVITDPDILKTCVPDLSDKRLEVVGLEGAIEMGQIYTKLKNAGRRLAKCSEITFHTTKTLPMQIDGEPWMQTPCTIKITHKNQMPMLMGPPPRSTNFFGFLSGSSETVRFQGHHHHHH

Row | SMILES | IC50 [1] [µM] | IC50 [2] [µM] | IC50 [3] [µM] | IC50 ([3]; Homo sapiens, Raji) [µM]
1 | COCCn1c(=O)c([N+](=O)[O-])c(N2CCN(C(C)c3ccc(F)cc3)CC2)c2nc(C#N)ccc21 (single isomer, unassigned) [Example 149, 8-(4-(1-(4-fluorophenyl)ethyl)piperazin-1-yl)-5-(2-methoxyethyl)-7-nitro-6-oxo-5,6-dihydro-1,5-naphthyridine-2-carbonitrile] | 86 | 47 | 0.064 | –
2 | COCCn1c(=O)c([N+](=O)[O-])c(N2CCN(C(C)c3ccc(F)cc3)CC2)c2nc(C#N)ccc21 (single isomer, unassigned) [Example 150, 8-(4-(1-(4-fluorophenyl)ethyl)piperazin-1-yl)-5-(2-methoxyethyl)-7-nitro-6-oxo-5,6-dihydro-1,5-naphthyridine-2-carbonitrile] | 88 | 73 | 0.51 | –
3 | COc1ccccc1C(c1ccc(F)cc1)N1CCN(c2c(C#N)c(=O)n(CC3CC3)c3ccc(Br)nc23)CC1 (single isomer, unassigned) [Example 159, 6-bromo-1-(cyclopropylmethyl)-4-(4-((4-fluorophenyl)(2-methoxyphenyl)methyl)piperazin-1-yl)-2-oxo-1,2-dihydro-1,5-naphthyridine-3-carbonitrile] | > 240 | 120 | – | 2
4 | COc1ccccc1C(c1ccc(F)cc1)N1CCN(c2c(C#N)c(=O)n(CC3CC3)c3ccc(Br)nc23)CC1 (single isomer, unassigned) [Example 160, 6-bromo-1-(cyclopropylmethyl)-4-(4-((4-fluorophenyl)(2-methoxyphenyl)methyl)piperazin-1-yl)-2-oxo-1,2-dihydro-1,5-naphthyridine-3-carbonitrile] | 160 | 180 | 2.9 | –
5 | Cn1c(=O)c(C#N)c(N2CCN(Cc3ccccc3O)CC2)c2nc(Br)ccc21 [Example 2, 6-Bromo-4-(4-(2-hydroxybenzyl)piperazin-1-yl)-1-methyl-2-oxo-1,2-dihydro-1,5-naphthyridine-3-carbonitrile] | > 240 | 0.049 | – | 0.2
6 | COc1ccc2c(c1)C(N1CCN(c3c(C#N)c(=O)n(C)c4ccc(Br)nc34)CC1)CC2 (stereo not drawn) [Example 21, 6-bromo-4-[4-(6-methoxy-2,3-dihydro-1H-inden-1-yl)piperazin-1-yl]-1-methyl-2-oxo-1,2-dihydro-1,5-naphthyridine-3-carbonitrile] | 94 | 22 | – | 0.41
7 | Cn1c(=O)c(C#N)c(N2CCN(C(CO)c3ccc(F)cc3)CC2)c2nc(Br)ccc21 (stereo not drawn) [Example 31, 6-bromo-4-{4-[1-(4-fluorophenyl)-2-hydroxyethyl]piperazin-1-yl}-1-methyl-2-oxo-1,2-dihydro-1,5-naphthyridine-3-carbonitrile] | > 240 | 1.2 | – | 1.8
8 | C#CCOc1ccccc1C(c1ccc(F)cc1)N1CCN(c2c(C#N)c(=O)n(C)c3ccc(Cl)nc23)CC1 (stereo not drawn) [Example 39, 6-chloro-4-{4-[(4-fluorophenyl)[2-(prop-2-yn-1-yloxy)phenyl]methyl]piperazin-1-lv}-1-methyl-2-oxo-1,2-dihydro-1,5-naphthyridine-3-carbonitrile] | > 240 | 50 | – | 0.64
9 | Cn1c(=O)c([N+](=O)[O-])c(N2CCN(C(c3ccc(F)cc3)c3ccc(F)cc3)CC2)c2nc(C#N)ccc21 [Example 40, 8-(4-(bis(4-fluorophenyl)methyl)piperazin-1-yl)-5-methyl-7-nitro-6-oxo-5,6-dihydro-1,5-naphthyridine-2-carbonitrile] | 1.3 | 1.9 | – | 0.037
10 | COc1ccc2c(c1)C(N1CCN(c3c([N+](=O)[O-])c(=O)n(C)c4ccc(C#N)nc34)CC1)CC2 (stereo not drawn) [Example 46, 8-(4-(6-methoxy-2,3-dihydro-1H-inden-1-yl)piperazin-1-yl)-5-methyl-7-nitro-6-oxo-5,6-dihydro-1,5-naphthyridine-2-carbonitrile] | 2.7 | 8.5 | – | 0.13
11 | Cn1c(=O)c([N+](=O)[O-])c(N2CCN(C(c3ccccc3)c3ccccc3)CC2)c2nc(Br)ccc21 [Example 52, 4-(4-benzhydrylpiperazin-1-yl)-6-bromo-1-methyl-3-nitro-1,5-naphthyridin-2(1H)-one] | 150 | 7.8 | – | 0.056
12 | Cn1c(=O)c([N+](=O)[O-])c(N2CCN(C(c3ccc(F)cc3)c3ccc(F)cc3)CC2)c2nc(Br)ccc21 [Example 53, 4-(4-(bis(4-fluorophenyl)methyl)piperazin-1-yl)-6-bromo-1-methyl-3-nitro-1,5-naphthyridin-2(1H)-one] | 16 | 1.5 | – | 0.043
13 | C#CCn1c(=O)c(C#N)c(N2CCN(Cc3ccccc3C(F)F)CC2)c2nc(Br)ccc21 [Example 64, 6-bromo-4-(4-(2-(difluoromethyl)benzyl)piperazin-1-yl)-2-oxo-1-(prop-2-yn-1-yl)-1,2-dihydro-1,5-naphthyridine-3-carbonitrile] | 14 | 2.7 | – | 55
14 | C#CCn1c(=O)c(C#N)c(N2CCN(Cc3ccc(F)cc3OC)CC2)c2nc(Br)ccc21 [Example 68, 6-bromo-4-(4-(4-fluoro-2-methoxybenzyl)piperazin-1-yl)-2-oxo-1-(prop-2-yn-1-yl)-1,2-dihydro-1,5-naphthyridine-3-carbonitrile] | 23 | 4 | – | 0.052
15 | Cn1c(=O)c([N+](=O)[O-])c(N2CCN(C(c3ccc(F)cc3)c3ccccc3O)CC2)c2nc(Br)ccc21 (stereo not drawn) [Example 70, 6-bromo-4-(4-((4-fluorophenyl)(2-hydroxyphenyl)methyl)piperazin-1-yl)-1-methyl-3-nitro-1,5-naphthyridin-2(1H)-one] | 3.3 | 0.13 | – | 0.0089
16 | Cc1ccccc1C(c1ccccc1O)N1CCN(c2c([N+](=O)[O-])c(=O)n(C)c3ccc(Br)nc23)CC1 (stereo not drawn) [Example 73, 6-bromo-4-(4-((2-hydroxyphenyl)(o-tolyl)methyl)piperazin-1-yl)-1-methyl-3-nitro-1,5-naphthyridin-2(1H)-one] | 2.1 | 0.9 | – | 0.026
17 | COCCn1c(=O)c(C#N)c(N2CCN(C(c3ccc(F)cc3)c3ccccc3O)CC2)c2nc(Br)ccc21 (stereo not drawn) [Example 117, 6-bromo-4-(4-((4-fluorophenyl)(2-hydroxyphenyl)methyl)piperazin-1-yl)-1-(2-methoxyethyl)-2-oxo-1,2-dihydro-1,5-naphthyridine-3-carbonitrile] | 21 | 46 | – | 0.77
18 | Cn1c(=O)c([N+](=O)[O-])c(N2CCN(C(c3ccc(F)cc3)c3ccc(F)cc3O)CC2)c2nc(C#N)ccc21 (stereo not drawn) [Example 122, 8-(4-((4-fluoro-2-hydroxyphenyl)(4-fluorophenyl)methyl)piperazin-1-yl)-5-methyl-7-nitro-6-oxo-5,6-dihydro-1,5-naphthyridine-2-carbonitrile] | 0.72 | 1 | – | 0.011
